Laboratory results taken from publication PMC10221074, “Functional Profiling of the A-Family of Venom Peptides from the Wolf Spider Lycosa shansia” (Toxins, 2023).

Assays:
Experiment in all cases: Antibacterial growth assay (OD600)
[1] = tested on: Pseudomonas aeruginosa DSM 1117; settings: antibiotic control 10µg/mL, OD600, medium = 100, MH II broth; for Bacterial growth relative to medium, P. aeruginosa (1117), replicate 1: replicate column 1; for Bacterial growth relative to medium, P. aeruginosa (1117), replicate 2: replicate column 2; for Bacterial growth relative to medium, P. aeruginosa (1117), replicate 3: replicate column 3
Protocol: (§1) Cryo-conserved cultures of selected bacterial strains (Table 4) were transferred to Tryptic Soy Agar (TSA) plates (Carl Roth) with a sterile inoculation loop, sealed with Parafilm (BEMIS, Neenah, WI, USA), and incubated for 1–2 days at 37 °C depending on growth. Single colonies were picked and transferred into 2–3 mL of the Mueller–Hinton II (MH II) broth (BD, Heidelberg, Germany). The bacteria were cultivated overnight, subcultured on fresh medium and grown for 3–4 h before testing at 37 °C, with shaking at 180 rpm. We measured the optical density at 600 nm (OD600) of 1 mL of the bacterial suspensions in polystyrene cuvettes (SARSTED, Nümbrecht, Germany) using an Ultrospec 10 spectrophotometer (Biochrome, Cambridge, UK). We then diluted them with the MH II medium to the preferred OD600 (Table 2). The peptides were dissolved in DMSO to generate 10 mmol/L stocks and diluted with the MH II medium to 200 µM before the assay. We used 10 µg/mL (~40 µg/mL for S. epidermidis) gentamicin and colistin (Sigma-Aldrich, Taufkirchen, Germany), DMSO and the medium only as controls. The bacteria were transferred to 96-multiwell plates with a final volume of 100 µL per well (50 µL bacterial suspension, and 50 µL test peptide). The OD600 was measured at 0, 24 and 48 h using a BioTek Eon microplate reader followed by analysis with Gen5 v2.09.

[2] = tested on: Pseudomonas aeruginosa DSM 50071; settings: antibiotic control 10µg/mL, OD600, medium = 100, MH II broth; for Bacterial growth relative to medium, P. aeruginosa (50071), replicate 1: replicate column 1; for Bacterial growth relative to medium, P. aeruginosa (50071), replicate 2: replicate column 2; for Bacterial growth relative to medium, P. aeruginosa (50071), replicate 3: replicate column 3
[3] = tested on: Micrococcus luteus DSM 20030; settings: antibiotic control 10µg/mL, OD600, medium = 100, MH II broth; for Bacterial growth relative to medium, M. luteus, replicate 1: replicate column 1; for Bacterial growth relative to medium, M. luteus, replicate 2: replicate column 2; for Bacterial growth relative to medium, M. luteus, replicate 3: replicate column 3
Protocol: as §1

[4] = tested on: Staphylococcus aureus DSM 2569; settings: antibiotic control 10µg/mL, OD600, medium = 100, MH II broth; for Bacterial growth relative to medium, S. aureus, replicate 1: replicate column 1; for Bacterial growth relative to medium, S. aureus, replicate 2: replicate column 2; for Bacterial growth relative to medium, S. aureus, replicate 3: replicate column 3
[5] = tested on: Escherichia coli BL21(DE3); settings: antibiotic control 10µg/mL, OD600, medium = 100, MH II broth; for Bacterial growth relative to medium, E. coli, replicate 1: replicate column 1; for Bacterial growth relative to medium, E. coli, replicate 2: replicate column 2; for Bacterial growth relative to medium, E. coli, replicate 3: replicate column 3
[6] = tested on: Listeria monocytogenes DSM 20600; settings: antibiotic control 10µg/mL, OD600, medium = 100, MH II broth; for Bacterial growth relative to medium, L. monocytogenes, replicate 1: replicate column 1; for Bacterial growth relative to medium, L. monocytogenes, replicate 2: replicate column 2; for Bacterial growth relative to medium, L. monocytogenes, replicate 3: replicate column 3
[7] = tested on: Staphylococcus epidermidis DSM 28319; settings: antibiotic control, table line says 10µg/mL (methods: ~40 µg/mL for S. epidermidis), OD600, medium = 100; for Bacterial growth relative to medium, S. epidermidis, replicate 1: replicate column 1; for Bacterial growth relative to medium, S. epidermidis, replicate 2: replicate column 2; for Bacterial growth relative to medium, S. epidermidis, replicate 3: replicate column 3

With `CNC(C)C1CCC(N)C(OC2C(N)CC(N)C(OC3OCC(C)(O)C(NC)C3O)C2O)O1` (stereo not drawn) [Genta, gentamicin, reference compound] the “Bacterial growth relative to medium, P. aeruginosa (1117), replicate 1” value [1] was 7.251, the “Bacterial growth relative to medium, P. aeruginosa (1117), replicate 2” value [1] was 12.1419 and the “Bacterial growth relative to medium, P. aeruginosa (1117), replicate 3” value [1] was 0.7836. The “Bacterial growth relative to medium, P. aeruginosa (50071), replicate 1” value [2] was 10.9397, the “Bacterial growth relative to medium, P. aeruginosa (50071), replicate 2” value [2] was 9.403 and the “Bacterial growth relative to medium, P. aeruginosa (50071), replicate 3” value [2] was 6.959. For the same compound, the “Bacterial growth relative to medium, M. luteus, replicate 1” value [3] was 34.7531, the “Bacterial growth relative to medium, M. luteus, replicate 2” value [3] was 33.0988 and the “Bacterial growth relative to medium, M. luteus, replicate 3” value [3] was 25.6914. The “Bacterial growth relative to medium, S. aureus, replicate 1” value [4] was 10.1302, the “Bacterial growth relative to medium, S. aureus, replicate 2” value [4] was 22.1938 and the “Bacterial growth relative to medium, S. aureus, replicate 3” value [4] was 8.389. For the same compound, the “Bacterial growth relative to medium, E. coli, replicate 1” value [5] was 15.2669, the “Bacterial growth relative to medium, E. coli, replicate 2” value [5] was 26.3127 and the “Bacterial growth relative to medium, E. coli, replicate 3” value [5] was 7.573. For the same compound, the “Bacterial growth relative to medium, L. monocytogenes, replicate 1” value [6] was 41.2443, the “Bacterial growth relative to medium, L. monocytogenes, replicate 2” value [6] was 32.6505 and the “Bacterial growth relative to medium, L. monocytogenes, replicate 3” value [6] was 13.0219. The “Bacterial growth relative to medium, S. epidermidis, replicate 1” value [7] was 41.1615, the “Bacterial growth relative to medium, S. epidermidis, replicate 2” value [7] was 36.2191 and the “Bacterial growth relative to medium, S. epidermidis, replicate 3” value [7] was 58.2561.

With colistin [Polymyx, reference compound] the “Bacterial growth relative to medium, P. aeruginosa (1117), replicate 1” value [1] was 8.3082, the “Bacterial growth relative to medium, P. aeruginosa (1117), replicate 2” value [1] was 7.355 and the “Bacterial growth relative to medium, P. aeruginosa (1117), replicate 3” value [1] was 3.543. The “Bacterial growth relative to medium, P. aeruginosa (50071), replicate 1” value [2] was 5.416, the “Bacterial growth relative to medium, P. aeruginosa (50071), replicate 2” value [2] was 11.2545 and the “Bacterial growth relative to medium, P. aeruginosa (50071), replicate 3” value [2] was 11.5437. The “Bacterial growth relative to medium, M. luteus, replicate 1” value [3] was 34.787, the “Bacterial growth relative to medium, M. luteus, replicate 2” value [3] was 53.8113 and the “Bacterial growth relative to medium, M. luteus, replicate 3” value [3] was 47.1539. For the same compound, the “Bacterial growth relative to medium, S. aureus, replicate 1” value [4] was 85.0041, the “Bacterial growth relative to medium, S. aureus, replicate 2” value [4] was 99.7935 and the “Bacterial growth relative to medium, S. aureus, replicate 3” value [4] was 95.4465. For the same compound, the “Bacterial growth relative to medium, E. coli, replicate 1” value [5] was 15.553, the “Bacterial growth relative to medium, E. coli, replicate 2” value [5] was 16.1645 and the “Bacterial growth relative to medium, E. coli, replicate 3” value [5] was 11.9401. The “Bacterial growth relative to medium, L. monocytogenes, replicate 1” value [6] was 82.3087, the “Bacterial growth relative to medium, L. monocytogenes, replicate 2” value [6] was 64.4034 and the “Bacterial growth relative to medium, L. monocytogenes, replicate 3” value [6] was 78.447. For the same compound, the “Bacterial growth relative to medium, S. epidermidis, replicate 1” value [7] was 77.611, the “Bacterial growth relative to medium, S. epidermidis, replicate 2” value [7] was 72.7124 and the “Bacterial growth relative to medium, S. epidermidis, replicate 3” value [7] was 81.8478.
